Laboratory results as given in patent US20260055088A1, “HETEROCYCLIC COMPOUND, METHOD FOR PREPARING SAME, AND PHARMACEUTICAL USE THEREOF” (Jiangsu Hengrui Pharmaceuticals Co., Ltd., priority 2022, published 2026).
Counter-ions that a name gives are not always drawn.

Target: Nav1.8 ion channel stably expressed on HEK293 cells (Homo sapiens (Human), UniProt Q9Y5Y9)
Assay: Inhibitory activity against Nav1.8, manual patch clamp
Type: cell-based
Settings: resting protocol (-80 mV to 10 mV), 1 μM TTX, read-out: IC50 for the inhibition of Nav1.8 channel activity
Excerpt: The objective of the experiment was to investigate the effects of the compounds on the Nav1.8 ion channel in ex vivo experiments. The Nav1.8 ion channel is stably expressed on HEK293 cells. After the Nav1.8 current stabilized, the effects of the compounds on the Nav1.8 ion channel were obtained by comparing the magnitudes of the Nav1.8 currents before and after the compounds were applied.
• 1) A patch clamp amplifier: patch clamp PC-505B (WARNER instruments)/MultiClamp 700A (Axon instrument) • 2) A digital-to-analog converter: Digidata 1440A (Axon CNS)/Digidata 1550A (Axon instruments) • 3) A micromanipulator: MP-225 (SUTTER instrument) • 4) An inverted microscope: TL4 (Olympus) • 5) Glass micropipette puller: PC-10 (NARISHIGE) • 6) Microelectrode glass capillaries: B12024F (Wuhan VitalSense Scientific Instruments Co., Ltd.) • 7) Dimethyl sulfoxide (DMSO) D2650 (Sigma-Aldrich) • 8) TTX AF3014 (Affix Scientific)
The compounds for preparing the intracellular and extracellular fluids were purchased from Sigma (St. Louis, MO) except for the NaOH and KOH for the acid-base titrations. The extracellular fluid (mM) was: NaCl, 137; KCl, 4; CaCl2, 1.8; MgCl2, 1; HEPES, 10; glucose, 10; pH 7.4 (NaOH titration). The intracellular fluid (mM) was: aspartic acid, 140; MgCl2, 2; EGTA, 11; HEPES, 10; pH 7.2 (CsOH titration). All test and control compound solutions contained 1 μM TTX.
The test compounds were stored at a concentration of 9 mM in dimethyl sulfoxide (DMSO). On the testing day, the compounds were further dissolved in the extracellular fluid to prepare the required concentrations.
1) After the compounds were prepared into solutions with specified concentrations, the compound solutions were sequentially added to channels in ascending order according to their concentrations, and each channel was labeled.
2) A cell was transferred to the perfusion chamber. Positive pressure was applied inside the electrode, and the electrode tip was brought into contact with the cell. The three-way valve of the suction device was switched to the state where all three ways were open, and negative pressure was then applied to the electrode, allowing a high-resistance seal to form between the electrode and the cell. The application of negative pressure was continued to rupture the cell membrane, leading to the formation of a current pathway.
3) After the cell membrane rupture current stabilized, perfusion was performed with different concentrations in sequence. If the current remained stable for at least one minute, perfusion was performed with the next concentration.
4) The perfusion chamber was cleaned. The perfusion chamber was rinsed with the compound solutions in descending order according to their concentrations, with each concentration applied for 20 s. Finally, the perfusion chamber was rinsed with the extracellular fluid for 1 min.
The cell was clamped at −80 mV and then depolarized to 10 mV using a square wave lasting for 10 ms to obtain a Nav1.8 current. This procedure was repeated once every 5 seconds. The maximum current induced by the square wave was detected. After the current stabilized, perfusion was performed with the test compounds. After the reaction stabilized, the strength of the blocking was calculated.
The data were stored on a computer system and analyzed. Data acquisition and analysis were performed using pCLAMP 10 (Molecular Devices, Union City, CA), and the results were reviewed by a manager. “Current stabilized” means that the changes in current over time were within a limited range. The magnitude of the current after stabilization was used to calculate the effect of the compound at this […].
The inhibitory activity of the compounds of the present disclosure against Nav1.8 was determined through the above assay.

COc1c([C@H]2[C@H](C(=O)Nc3ccnc(C(=O)C(N)=O)c3)O[C@@](C)(C(F)(F)F)[C@H]2C)ccc(F)c1F [Example 26, (2R,3S,4S,5R)—N-(2-(2-Amino-2-oxoacetyl)pyridin-4-yl)-3-(3,4-difluoro-2-methoxyphenyl)-4,5-dimethyl-5-(trifluoromethyl)tetrahydrofuran-2-carboxamide trifluoroacetate]
IC50: 1.09 nM
